According to BindingDB's records for doi:10.1016/j.bmc.2007.03.063 (Zhengzhou University, 2007):

What follows are compounds tested against Maltase-glucoamylase (Homo sapiens, UniProt O43451) (assay: Inhibition of alpha-glucosidase).
Maltase-glucoamylase, sequence (O43451 whole entry): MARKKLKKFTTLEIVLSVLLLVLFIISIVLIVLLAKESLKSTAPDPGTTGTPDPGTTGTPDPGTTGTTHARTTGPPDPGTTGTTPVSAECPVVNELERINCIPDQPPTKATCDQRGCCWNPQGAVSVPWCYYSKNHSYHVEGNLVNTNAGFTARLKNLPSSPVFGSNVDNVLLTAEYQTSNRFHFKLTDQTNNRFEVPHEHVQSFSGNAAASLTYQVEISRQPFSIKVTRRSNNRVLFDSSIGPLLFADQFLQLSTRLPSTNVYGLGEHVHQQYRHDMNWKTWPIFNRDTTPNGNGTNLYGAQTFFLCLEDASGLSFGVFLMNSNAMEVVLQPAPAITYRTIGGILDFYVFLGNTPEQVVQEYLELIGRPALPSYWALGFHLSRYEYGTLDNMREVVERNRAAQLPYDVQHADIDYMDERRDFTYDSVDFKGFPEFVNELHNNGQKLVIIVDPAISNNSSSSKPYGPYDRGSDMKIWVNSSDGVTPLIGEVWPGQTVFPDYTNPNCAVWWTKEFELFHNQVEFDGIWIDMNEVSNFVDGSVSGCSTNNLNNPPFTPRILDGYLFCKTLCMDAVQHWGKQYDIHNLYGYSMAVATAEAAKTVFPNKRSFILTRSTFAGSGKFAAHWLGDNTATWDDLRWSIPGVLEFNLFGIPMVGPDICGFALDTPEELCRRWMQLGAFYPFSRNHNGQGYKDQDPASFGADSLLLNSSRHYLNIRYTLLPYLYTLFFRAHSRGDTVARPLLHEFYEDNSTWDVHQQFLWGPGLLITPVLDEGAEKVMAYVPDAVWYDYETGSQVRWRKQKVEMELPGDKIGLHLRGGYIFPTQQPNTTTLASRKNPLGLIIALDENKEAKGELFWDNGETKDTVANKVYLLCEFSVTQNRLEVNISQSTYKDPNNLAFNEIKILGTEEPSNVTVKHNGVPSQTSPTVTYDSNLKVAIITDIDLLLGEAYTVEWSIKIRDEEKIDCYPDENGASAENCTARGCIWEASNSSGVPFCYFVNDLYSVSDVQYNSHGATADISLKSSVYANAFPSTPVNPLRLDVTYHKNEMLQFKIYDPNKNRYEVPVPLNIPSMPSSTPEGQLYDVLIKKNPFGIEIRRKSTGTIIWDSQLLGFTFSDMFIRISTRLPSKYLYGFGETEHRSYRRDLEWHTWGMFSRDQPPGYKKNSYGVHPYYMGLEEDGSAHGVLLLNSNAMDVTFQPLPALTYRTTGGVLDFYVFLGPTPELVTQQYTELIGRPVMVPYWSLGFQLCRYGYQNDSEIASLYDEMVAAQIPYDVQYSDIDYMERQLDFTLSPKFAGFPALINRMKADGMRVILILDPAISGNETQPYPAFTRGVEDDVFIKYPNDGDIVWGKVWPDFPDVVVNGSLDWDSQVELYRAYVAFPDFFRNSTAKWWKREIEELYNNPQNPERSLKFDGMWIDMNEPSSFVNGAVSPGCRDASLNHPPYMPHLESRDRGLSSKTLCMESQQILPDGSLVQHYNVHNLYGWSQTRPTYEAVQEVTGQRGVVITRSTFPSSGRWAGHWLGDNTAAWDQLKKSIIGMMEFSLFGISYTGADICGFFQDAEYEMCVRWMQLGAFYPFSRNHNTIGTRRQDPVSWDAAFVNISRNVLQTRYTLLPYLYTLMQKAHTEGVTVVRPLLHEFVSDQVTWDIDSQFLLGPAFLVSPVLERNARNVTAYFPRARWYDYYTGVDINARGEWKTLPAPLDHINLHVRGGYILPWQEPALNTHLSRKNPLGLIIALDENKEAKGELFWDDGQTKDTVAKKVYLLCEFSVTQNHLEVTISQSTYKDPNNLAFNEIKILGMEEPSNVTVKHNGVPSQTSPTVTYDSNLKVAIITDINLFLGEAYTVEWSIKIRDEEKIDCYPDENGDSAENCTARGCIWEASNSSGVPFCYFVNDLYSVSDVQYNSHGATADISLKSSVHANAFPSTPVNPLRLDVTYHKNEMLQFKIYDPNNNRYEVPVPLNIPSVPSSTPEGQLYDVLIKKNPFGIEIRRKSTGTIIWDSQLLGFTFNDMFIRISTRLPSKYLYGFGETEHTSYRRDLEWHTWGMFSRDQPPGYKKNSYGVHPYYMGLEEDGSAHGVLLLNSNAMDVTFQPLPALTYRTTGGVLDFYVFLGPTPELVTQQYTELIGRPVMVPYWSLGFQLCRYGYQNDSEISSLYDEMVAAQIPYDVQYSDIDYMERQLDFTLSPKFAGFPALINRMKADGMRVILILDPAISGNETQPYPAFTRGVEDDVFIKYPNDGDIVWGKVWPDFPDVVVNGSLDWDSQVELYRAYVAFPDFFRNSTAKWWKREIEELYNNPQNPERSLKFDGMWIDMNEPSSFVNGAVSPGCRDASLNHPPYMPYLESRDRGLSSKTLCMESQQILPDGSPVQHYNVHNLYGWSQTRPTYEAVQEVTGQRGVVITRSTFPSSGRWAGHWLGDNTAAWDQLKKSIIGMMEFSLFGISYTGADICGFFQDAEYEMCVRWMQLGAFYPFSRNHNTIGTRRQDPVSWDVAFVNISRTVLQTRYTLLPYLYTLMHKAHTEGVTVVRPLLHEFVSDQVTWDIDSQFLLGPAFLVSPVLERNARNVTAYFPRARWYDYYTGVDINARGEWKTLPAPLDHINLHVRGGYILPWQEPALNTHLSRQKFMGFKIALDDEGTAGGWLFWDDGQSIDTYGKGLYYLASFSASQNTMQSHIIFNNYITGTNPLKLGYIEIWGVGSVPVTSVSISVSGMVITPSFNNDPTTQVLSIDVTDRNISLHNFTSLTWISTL

| SMILES | IC50 [µM] |
| --- | --- |
| C=C1CC[C@@H]2[C@](C)(COC(=O)c3cccnc3)[C@H](OC(=O)c3cccnc3)CC[C@@]2(C)[C@@H]1/C=C/C1=CC(=C\C(C)=C\CCC/C=C/C)/OC1=O [14-deoxy-11,12-didehydro-3,19-dinicotinate-15-(2,8-dimethanyl-2,7-octanedieneylidene)-andrographolide] | 28 |
| C=C1CC[C@@H]2[C@](C)(COC(=O)c3cccnc3)[C@H](OC(=O)c3cccnc3)CC[C@@]2(C)[C@@H]1/C=C/C1=CC(=C/c2ccco2)/OC1=O [14-deoxy-11,12-didehydro-3,19-dinicotinate-15-(2-furanmethanylidene)-andrographolide] | 36 |
| C=C1CC[C@@H]2[C@](C)(COC(=O)c3cccnc3)[C@H](OC(=O)c3cccnc3)CC[C@@]2(C)[C@@H]1/C=C/C1=CC(=C\c2ccc(N(C)C)cc2)/OC1=O [14-deoxy-11,12-didehydro-3,19-dinicotinate-15-(p(-dimethylamino)benzylidene)-andrographolide] | 25 |
| C=C1CC[C@@H]2[C@](C)(COC(=O)c3cccnc3)[C@H](OC(=O)c3cccnc3)CC[C@@]2(C)[C@@H]1/C=C/C1=CC(=C\c2ccc(OC)cc2)/OC1=O [14-deoxy-11,12-didehydro-3,19-dinicotinate-15-p-methoxylbenzylidene andrographolide] | 11 |
| C=C1CC[C@@H]2[C@](C)(CO)[C@H](O)CC[C@@]2(C)[C@@H]1/C=C/C1=CC(=C/c2ccco2)/OC1=O [14-deoxy-11,12-didehydro-15-(-2-furanmethanylidene)-andrographolide] | 100 |
| C=C1CC[C@@H]2[C@](C)(CO)[C@H](O)CC[C@@]2(C)[C@@H]1/C=C/C1=CC(=C/c2cc(OC)c(OC)cc2OC)/OC1=O [14-deoxy-11,12-didehydro-15-trimethoxylbenzylideneandrographolide] | 84 |
| C=C1CC[C@@H]2[C@](C)(CO)[C@H](O)CC[C@@]2(C)[C@@H]1/C=C/C1=CC(=C/c2ccc(N(C)C)cc2)/OC1=O [14-deoxy-15-(p-(dimethanylamino)-benzylidene)-11,12-didehydroandrographolide] | 70 |
| C=C1CC[C@@H]2[C@](C)(CO)[C@H](O)CC[C@@]2(C)[C@@H]1/C=C/C1=CC(=C/c2ccc3c(c2)OCO3)/OC1=O [15-(benzo[1,3]dioxole-5-methanylidene)-14-deoxy-11,12-didehydroandrographolide] | 82 |
| C=C1CC[C@@H]2[C@](C)(COC(=O)c3cccnc3)[C@H](OC(=O)c3cccnc3)CC[C@@]2(C)[C@@H]1/C=C/C1=CC(=C\c2cccc(Br)c2)/OC1=O [15-(m-bromoacylbenzylidene)-14-deoxy-11,12-didehydro-3,19-dinicotinateandrographolide] | 14 |
| C=C1CC[C@@H]2[C@](C)(COC(=O)c3cccnc3)[C@H](OC(=O)c3cccnc3)CC[C@@]2(C)[C@@H]1/C=C/C1=CC(=C\c2ccc(Cl)cc2)/OC1=O [15-(p-chlorinebenzylidene)-14-deoxy-11,12-didehydro-3,19-dinicotinateandrographolide] | 6 |
| C=C1CC[C@@H]2[C@](C)(COC(=O)c3cccnc3)[C@H](OC(=O)c3cccnc3)CC[C@@]2(C)[C@@H]1/C=C/C1=CC(=C\c2ccccc2)/OC1=O [15-benzylidene14-deoxy-11,12-didehydro-3,19-dinicotinateandrographolide] | 16 |
| C=C1CC[C@@H]2[C@](C)(CO)[C@H](O)CC[C@@]2(C)[C@@H]1/C=C/C1=CC(=C/c2ccccc2)/OC1=O [15-benzylidene-14-deoxy-11,12-didehydroandrographolide] | 58 |
